In patent US20100035866A1, “NOVEL SUBSTITUTED-1, 1-DIOXO-BENZO[1,2,4]THIADIAZIN-3ONES, PREPARATION METHOD THEREOF, AND PHARMACEUTICAL COMPOSITION CONTAINING THE SAME” (KOREA RESEARCH INSTITUTE OF CHEMICAL TECHNOLOGY, priority 2006, published 2010):

Legend:
5-HT1a = target: T1, 5-HT1a (Homo sapiens, UniProt P08908); test: Radioligand binding, 5-HT receptor family: 5-HT1a ([3H]8-OH-DPAT); conditions: CHO-K1 human recombinant receptor, [3H]8-OH-DPAT 0.5 nM; read-out: Binding affinity, IC50 (nM), 5-HT1a
T1 construct: purchased Euroscreen/BioSignal Packard Inc
T1 sequence (P08908 1-422): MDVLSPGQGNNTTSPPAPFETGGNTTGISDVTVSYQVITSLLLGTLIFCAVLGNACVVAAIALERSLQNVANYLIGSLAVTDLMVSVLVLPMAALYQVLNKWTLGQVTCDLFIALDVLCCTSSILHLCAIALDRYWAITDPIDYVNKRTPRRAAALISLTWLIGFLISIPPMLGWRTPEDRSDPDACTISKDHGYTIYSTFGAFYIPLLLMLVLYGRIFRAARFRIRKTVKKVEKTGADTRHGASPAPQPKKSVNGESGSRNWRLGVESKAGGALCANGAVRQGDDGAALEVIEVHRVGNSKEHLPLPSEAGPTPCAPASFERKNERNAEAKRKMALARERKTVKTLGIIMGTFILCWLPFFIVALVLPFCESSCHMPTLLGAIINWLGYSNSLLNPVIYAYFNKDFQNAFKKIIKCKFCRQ

5-HT2a = target: T2, 5-HT2a (Homo sapiens, UniProt P28223); test: Radioligand binding, 5-HT receptor family: 5-HT2a ([3H]Ketanserin); conditions: CHO-K1 human recombinant receptor, [3H]Ketanserin 1 nM; read-out: Binding affinity, IC50 (nM), 5-HT2a
T2 construct: purchased Euroscreen/BioSignal Packard Inc

5-HT2c = target: T3, 5-HT2c (Homo sapiens, UniProt P28335); test: Radioligand binding, 5-HT receptor family: 5-HT2c ([3H]Mesulergine); conditions: CHO-K1 human recombinant receptor, [3H]Mesulergine 1 nM; read-out: Binding affinity, IC50 (nM), 5-HT2c
T3 construct: purchased Euroscreen/BioSignal Packard Inc
T3 sequence (P28335 33-458): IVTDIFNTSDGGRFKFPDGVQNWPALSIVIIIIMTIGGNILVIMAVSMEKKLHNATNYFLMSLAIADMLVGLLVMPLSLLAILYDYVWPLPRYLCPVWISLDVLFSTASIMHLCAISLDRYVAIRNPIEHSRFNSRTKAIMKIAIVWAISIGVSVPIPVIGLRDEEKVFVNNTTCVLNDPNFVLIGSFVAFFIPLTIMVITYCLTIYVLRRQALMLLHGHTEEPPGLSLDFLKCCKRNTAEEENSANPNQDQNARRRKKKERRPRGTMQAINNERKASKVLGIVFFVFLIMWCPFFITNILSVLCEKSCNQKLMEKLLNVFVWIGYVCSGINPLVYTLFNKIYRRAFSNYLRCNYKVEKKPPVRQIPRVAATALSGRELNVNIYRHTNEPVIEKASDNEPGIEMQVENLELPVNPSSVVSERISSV

5-HT7 = target: T4, 5-HT7 (Homo sapiens, UniProt P34969); test: Radioligand binding, 5-HT receptor family: 5-HT7 ([3H]LSD); conditions: CHO-K1 human recombinant receptor, [3H]LSD 3 nM; read-out: Binding affinity, IC50 (nM), 5-HT7
T4 construct: purchased Euroscreen/BioSignal Packard Inc
Procedure: Radioligand bindings were performed according to the test method provided by the supplier of receptor membrane (Euroscreen/BioSignal Packard Inc.). The detailed assay conditions and the results were shown in the following Table 3 and Table 4, respectively.

D1 = D1 (Homo sapiens, UniProt P21728); test: Dopamine receptor family binding: D1; conditions: read-out: Binding affinity, IC50 (nM), D1
hD2L receptor = target: T5, hD2L receptor (Homo sapiens, UniProt P14416); test: Dopamine receptor family binding: D2 ([3H]spiperone); conditions: [3H]spiperone 1 nM; read-out: Binding affinity, IC50 (nM), D2
T5 construct: purchased BioSignal Packard Inc., Montreal, Canada
Procedure: (§1) 2-2: Binding Assays of Dopamine Receptor Family
(§2) The radioligands used were [^3H]spiperone (for hD2L and hD3 receptors, 1 nM) and [^3H] YM-09151-2 (for hD4.2 receptor, 0.06 nM). Radioligand bindings were performed by the protocols provided by the supplier of receptor membranes (BioSignal Packard Inc., Montreal, Canada). Briefly, the buffer used in D2 or D3 receptor binding assay was 50 mM Tris-HCl (pH 7.4), 10 mM MgCl2, 1 mM EDTA, or 50 mM Tris-HCl (pH 7.4), 5 mM MgCl2 5 mM EDTA, 5 mM KCl, 1.5 mM CaCl2, 120 mM NaCl, respectively. In [^3H] YM-09151-2 receptor binding assays, the buffer containing 50 mM Tris-HCl (pH 7.4), 5 mM MgCl2, 5 mM EDTA, 5 mM KCl and 1.5 mM CaCl2 was used. […] Competition binding studies were carried out with 7-8 concentrations of the test compound run in duplicate tubes, and isotherms from three assays were calculated by computerized nonlinear regression analysis (GraphPad Prism Program, San Diego, […]) to yield median inhibitory concentration (IC50) values.

hD3 receptor = target: T6, hD3 receptor (Homo sapiens, UniProt P35462); test: Dopamine receptor family binding: D3 ([3H]spiperone); conditions: [3H]spiperone 1 nM; read-out: Binding affinity, IC50 (nM), D3
T6 construct: purchased BioSignal Packard Inc., Montreal, Canada

hD4.2 receptor = target: T7, hD4.2 receptor (Homo sapiens, UniProt P21917, DEL265-296); test: Dopamine receptor family binding: D4 ([3H]YM-09151-2); conditions: [3H]YM-09151-2 0.06 nM; read-out: Binding affinity, IC50 (nM), D4
T7 construct: purchased BioSignal Packard Inc., Montreal, Canada
T7 sequence (P21917 with tags, fused parts or gaps DEL265-296): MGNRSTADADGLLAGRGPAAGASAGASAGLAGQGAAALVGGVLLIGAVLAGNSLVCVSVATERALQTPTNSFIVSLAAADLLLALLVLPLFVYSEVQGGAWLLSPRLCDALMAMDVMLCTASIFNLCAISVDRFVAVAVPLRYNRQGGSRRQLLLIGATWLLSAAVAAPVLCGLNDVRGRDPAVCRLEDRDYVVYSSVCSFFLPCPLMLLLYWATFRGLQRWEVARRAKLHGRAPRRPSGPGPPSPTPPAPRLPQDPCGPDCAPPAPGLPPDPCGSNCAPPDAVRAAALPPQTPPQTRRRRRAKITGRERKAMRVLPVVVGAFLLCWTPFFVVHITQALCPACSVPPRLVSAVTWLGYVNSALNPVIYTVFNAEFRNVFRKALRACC
Procedure: as §1, §2

[1] = target: Human serotonin 5-HT6 receptor (Homo sapiens, UniProt P50406); test: [3H]LSD binding assay on cloned 5-HT6 receptor; conditions: IC50 (nM)
[2] = Binding affinity, 5-HT6, Table 4
[3] = binding affinity to the 5-HT6 receptor, Table 2, 1.87 nM [3H]LSD, cloned human receptor membranes from Sf21 cells, 37° C. 60 min

T2 sequence (P28223 whole entry): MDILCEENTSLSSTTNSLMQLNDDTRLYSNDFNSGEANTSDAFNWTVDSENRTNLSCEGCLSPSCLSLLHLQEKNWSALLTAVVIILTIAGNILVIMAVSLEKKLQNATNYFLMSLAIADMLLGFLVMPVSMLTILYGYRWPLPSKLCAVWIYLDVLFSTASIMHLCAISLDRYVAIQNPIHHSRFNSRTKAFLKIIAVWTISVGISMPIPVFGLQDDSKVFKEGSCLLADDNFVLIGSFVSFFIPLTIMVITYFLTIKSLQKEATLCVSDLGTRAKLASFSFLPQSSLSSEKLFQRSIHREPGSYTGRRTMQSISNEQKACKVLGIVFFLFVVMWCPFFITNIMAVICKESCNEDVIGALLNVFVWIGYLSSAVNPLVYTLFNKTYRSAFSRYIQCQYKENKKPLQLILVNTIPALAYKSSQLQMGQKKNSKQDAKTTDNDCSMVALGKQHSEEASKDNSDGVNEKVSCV
T5 sequence (P14416 whole entry): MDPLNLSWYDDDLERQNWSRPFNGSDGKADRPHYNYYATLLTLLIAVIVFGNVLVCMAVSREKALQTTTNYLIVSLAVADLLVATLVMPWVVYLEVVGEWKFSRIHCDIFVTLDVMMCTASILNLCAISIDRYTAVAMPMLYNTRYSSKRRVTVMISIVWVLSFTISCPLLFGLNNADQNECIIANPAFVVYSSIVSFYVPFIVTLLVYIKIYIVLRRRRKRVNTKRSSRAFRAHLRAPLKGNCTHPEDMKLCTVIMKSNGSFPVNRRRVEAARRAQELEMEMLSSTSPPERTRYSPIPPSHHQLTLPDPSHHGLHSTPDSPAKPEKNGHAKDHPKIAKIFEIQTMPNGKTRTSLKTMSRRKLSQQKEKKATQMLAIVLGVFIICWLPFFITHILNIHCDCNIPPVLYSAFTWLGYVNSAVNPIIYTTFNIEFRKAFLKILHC
T4 sequence (P34969 whole entry): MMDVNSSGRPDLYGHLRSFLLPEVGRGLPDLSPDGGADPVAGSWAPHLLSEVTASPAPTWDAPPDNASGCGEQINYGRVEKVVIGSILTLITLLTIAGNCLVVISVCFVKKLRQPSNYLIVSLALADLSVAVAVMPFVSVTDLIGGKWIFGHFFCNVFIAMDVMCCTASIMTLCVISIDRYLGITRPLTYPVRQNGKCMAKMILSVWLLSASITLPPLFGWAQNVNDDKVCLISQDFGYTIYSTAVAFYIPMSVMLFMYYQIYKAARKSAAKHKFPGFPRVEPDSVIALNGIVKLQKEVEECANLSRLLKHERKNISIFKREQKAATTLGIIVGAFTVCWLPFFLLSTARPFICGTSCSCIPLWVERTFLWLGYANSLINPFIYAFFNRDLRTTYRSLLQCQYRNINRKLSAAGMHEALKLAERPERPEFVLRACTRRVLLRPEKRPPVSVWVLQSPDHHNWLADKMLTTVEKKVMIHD
T6 sequence (P35462 whole entry): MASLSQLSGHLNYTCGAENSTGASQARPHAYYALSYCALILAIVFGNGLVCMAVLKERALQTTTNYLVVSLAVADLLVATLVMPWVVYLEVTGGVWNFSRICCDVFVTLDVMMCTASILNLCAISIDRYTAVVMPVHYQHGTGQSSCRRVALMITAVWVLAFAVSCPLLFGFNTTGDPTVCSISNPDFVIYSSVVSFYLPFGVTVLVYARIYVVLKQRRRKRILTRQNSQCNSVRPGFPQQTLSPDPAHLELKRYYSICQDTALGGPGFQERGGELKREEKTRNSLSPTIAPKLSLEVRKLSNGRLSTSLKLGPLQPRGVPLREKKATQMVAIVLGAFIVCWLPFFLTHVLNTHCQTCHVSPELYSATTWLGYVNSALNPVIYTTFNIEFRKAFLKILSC
Human serotonin 5-HT6 receptor, sequence (P50406 whole entry): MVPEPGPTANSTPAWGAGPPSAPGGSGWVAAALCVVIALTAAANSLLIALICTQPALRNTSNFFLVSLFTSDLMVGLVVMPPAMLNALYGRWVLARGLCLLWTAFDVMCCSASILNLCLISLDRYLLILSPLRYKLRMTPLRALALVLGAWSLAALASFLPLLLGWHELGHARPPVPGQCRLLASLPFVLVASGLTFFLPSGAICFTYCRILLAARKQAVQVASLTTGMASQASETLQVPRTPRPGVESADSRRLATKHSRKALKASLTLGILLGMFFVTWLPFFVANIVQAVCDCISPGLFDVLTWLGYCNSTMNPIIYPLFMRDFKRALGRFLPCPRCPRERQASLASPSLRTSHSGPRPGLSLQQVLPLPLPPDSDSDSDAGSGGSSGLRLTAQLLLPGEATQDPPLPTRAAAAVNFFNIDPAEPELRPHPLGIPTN
D1, sequence (P21728 whole entry): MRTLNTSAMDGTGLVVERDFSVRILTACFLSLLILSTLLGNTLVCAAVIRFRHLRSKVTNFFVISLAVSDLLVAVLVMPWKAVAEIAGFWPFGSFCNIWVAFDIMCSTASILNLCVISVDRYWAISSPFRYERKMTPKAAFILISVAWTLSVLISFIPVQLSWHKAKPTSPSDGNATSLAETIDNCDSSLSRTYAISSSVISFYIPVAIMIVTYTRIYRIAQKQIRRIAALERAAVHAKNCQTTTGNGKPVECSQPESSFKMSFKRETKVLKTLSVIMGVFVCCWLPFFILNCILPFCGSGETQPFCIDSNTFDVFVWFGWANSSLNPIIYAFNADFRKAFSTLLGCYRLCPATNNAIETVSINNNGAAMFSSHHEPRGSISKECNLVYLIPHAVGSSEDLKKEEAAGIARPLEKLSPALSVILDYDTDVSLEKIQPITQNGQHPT

| SMILES | IC50 (5-HT1a) | IC50 (5-HT2a) | IC50 (5-HT2c) | IC50 (5-HT7) | IC50 (D1) | IC50 (hD2L receptor) | IC50 (hD3 receptor) | IC50 (hD4.2 receptor) | melting point | IC50 [1, 2] | IC50 [1, 3] |
| --- | --- | --- | --- | --- | --- | --- | --- | --- | --- | --- | --- |
| COc1cccc(CN2C(=O)N(Cc3ccccc3)c3cc(Cl)cc(N4CCN(C)CC4)c3S2(=O)=O)c1 [Example 17, 4-Benzyl-6-chloro-2-(3-methoxy-benzyl)-8-(4-methyl-piperazin-1-yl)-1,1-dioxo-1,4-dihydro-2H-1λ^6-benzo[1,2,4]thiadiazin-3-one] | 1950 nM | 318 nM | 899 nM | > 10000 nM | 4730 nM | 4860 nM | 537 nM | > 10000 nM | 85 to 86 °C | 10.9 nM | 10.6 nM |
| C[C@@H](c1ccccc1)N1C(=O)N(Cc2ccccc2)c2cc(Cl)cc(N3CCN(C)CC3)c2S1(=O)=O [Example 26, 4-Benzyl-6-chloro-8-(4-methyl-piperazin-1-yl)-1,1-dioxo-2-[(S)-1-phenyl-ethyl]-1,4-dihydro-2H-1λ^6-benzo[1,2,4]thiadiazin-3-one] | 589 nM | 145 nM | 183 nM | 8250 nM | 1760 nM | 6580 nM | 715 nM | > 10000 nM | – | 2.4 nM | 2.4 nM |
| CN1CCN(c2cc(Cl)cc3c2S(=O)(=O)N(c2ccccc2)C(=O)N3Cc2ccccc2)CC1 [Example 27, 4-Benzyl-6-chloro-8-(4-methyl-piperazin-1-yl)-1,1-dioxo-2-phenyl-1,4-dihydro-2H-1λ^6-benzo[1,2,4]thiadiazin-3-one] | 2080 nM | 4310 nM | 2580 nM | > 10000 nM | 2690 nM | > 10000 nM | 5950 nM | > 10000 nM | – | 3.8 nM | 3.8 nM |
| Cc1cc(C)cc(CCCN2C(=O)N(Cc3ccccc3)c3cc(Cl)cc(N4CCN(C)CC4)c3S2(=O)=O)c1 [Example 38, 4-Benzyl-6-chloro-2-[3-(3,5-dimethyl-phenyl)-propyl]-8-(4-methyl-piperazin-1-yl)-1,1-dioxo-1,4-dihydro-2H-1λ^6-benzo[1,2,4]thiadiazin-3-one] | 3420 nM | 359 nM | 508 nM | 9140 nM | 918 nM | > 10000 nM | 336 nM | > 10000 nM | – | 0.6 nM | 0.6 nM |
| COc1cccc(CN2C(=O)N(Cc3ccccc3)c3cc(Cl)cc(N4CCNCC4)c3S2(=O)=O)c1 [Example 52, 4-Benzyl-6-chloro-2-(3-methoxy-benzyl)-1,1-dioxo-8-piperazin-1-yl-1,4-dihydro-2H-1λ^6-benzo[1,2,4]thiadiazin-3-one] | 1860 nM | 1000 nM | 1350 nM | 6780 nM | 3140 nM | 3220 nM | 531 nM | > 10000 nM | 98 to 100 °C | 2 nM | 5.8 nM |
| COc1ccc(CN2C(=O)N(Cc3ccccc3)c3cc(Cl)cc(N4CCNCC4)c3S2(=O)=O)cc1 [Example 53, 4-Benzyl-6-chloro-2-(4-methoxy-benzyl)-1,1-dioxo-8-piperazin-1-yl-1,4-dihydro-2H-1λ^6-benzo[1,2,4]thiadiazin-3-one] | 3260 nM | 651 nM | 961 nM | 6580 nM | > 10000 nM | 2440 nM | 844 nM | > 10000 nM | – | 11.8 nM | 11.8 nM |
| O=C1N(Cc2ccccc2)c2cc(Cl)cc(N3CCNCC3)c2S(=O)(=O)N1Cc1cccc(O)c1 [Example 54, 4-Benzyl-6-chloro-2-(3-hydroxy-benzyl)-1,1-dioxo-8-piperazin-1-yl-1,4-dihydro-2H-1λ^6-benzo[1,2,4]thiadiazin-3-one] | 621 nM | 1150 nM | 1800 nM | > 10000 nM | 4100 nM | 2280 nM | 804 nM | > 10000 nM | 230 to 231 °C | 5.8 nM | 1 nM |
| C[C@H](c1ccccc1)N1C(=O)N(Cc2ccccc2)c2cc(Cl)cc(N3CCNCC3)c2S1(=O)=O [Example 58, 4-Benzyl-6-chloro-1,1-dioxo-2-[(R)-1-phenyl-ethyl]-8-piperazin-1-yl-1,4-dihydro-2H-1λ^6-benzo[1,2,4]thiadiazin-3-one] | > 10000 nM | 549 nM | 424 nM | 6390 nM | 1780 nM | 4500 nM | 398 nM | > 10000 nM | – | 2.3 nM | 2.3 nM |
| C[C@@H](c1ccccc1)N1C(=O)N(Cc2ccccc2)c2cc(Cl)cc(N3CCNCC3)c2S1(=O)=O [Example 59, 4-Benzyl-6-chloro-1,1-dioxo-2-[(S)-1-phenyl-ethyl]-8-piperazin-1-yl-1,4-dihydro-2H-1λ^6-benzo[1,2,4]thiadiazin-3-one] | 1400 nM | 272 nM | 508 nM | 2300 nM | 4100 nM | 4640 nM | 403 nM | > 10000 nM | – | 3 nM | 3 nM |
| COc1cccc(N2C(=O)N(Cc3ccccc3)c3cc(Cl)cc(N4CCNCC4)c3S2(=O)=O)c1 [Example 62, 4-Benzyl-6-chloro-2-(3-methoxy-phenyl)-1,1-dioxo-8-piperazin-1-yl-1,4-dihydro-2H-1λ^6-benzo[1,2,4]thiadiazin-3-one] | 926 nM | 3170 nM | 4960 nM | > 10000 nM | 5590 nM | > 10000 nM | 2370 nM | > 10000 nM | – | 10.2 nM | 10.2 nM |
